Measurements taken from patent US20240409935A1, “Atg8ylation coordinates stress granule formation and mTOR inactivation in response to lysosomal damage” (priority 2023, published 2024).

Tests used:
Type in all cases: cell-based, human
[1] = test system: mTOR and Raptor on lysosomes; experiment: LysoIP quantitative DIA proteomics (LC/MS/MS) of lysosomes from HEK293T cells; settings: 1 mM LLOMe for 30 min
Procedure: Three groups of proteins are labeled (ESCRT components in green, autophagy factors in blue and stress granule components in purple). […] The dotted orange line indicates the significance cut-off (P<0.05). […] The significant increased proteins in LysoIP LC/MS/MS were analyzed by STRING functional protein association networks. […] Strength, Log 10(observed/expected) describes how large the enrichment effect is. […] TMEM192-2×FLAG, control. […] U20S cells Were treated with Earle's Balanced Salt Solution (EBSS), 4 mM LOMe, 2 mM LLOMe, 200 μM GPN, or 400 μg/mL silica for 30 min. White masks, algorithm-defined cell boundaries (primary objects); red masks, computer-identified G3BP1 puncta (target objects). […] U2OS cells Were treated with 2 mM LLOMe for 30 min and stained for endogenous G3BP1. Scale bar, 5 μm. […] Green masks, computer-identified G3BP1 puncta. […] Red masks, computer-identified Galectin-3 puncta. FIG. 1G Immunoblot analysis of eIF2α (S51) phosphorylation in U2OS cells treated with 2 mM LLOMe for 30 min and followed by 1 h washout. […] The level of phosphorylation of eIF2α (S51) is quantified based on three independent experiments. […] Scale bar, 5/10 μm. […] The level of ATF4 and phosphorylation of eIF2α (S51) and 4EBP1 (S65) are quantified based on three independent experiments. Ctrl, control (untreated cells). […]

[2] = test system: ATF4; experiment: Immunoblot analysis of ATF4 in U2OS cells; settings: 2 mM LLOMe, indicated time points
[3] = test system: U2OS wildtype (WT) and ΔΔG3BP1/2 cells; experiment: Propidium iodide (PI) uptake cell death assay (HCM) in U2OS WT and ΔΔG3BP1/2 cells; settings: ΔΔG3BP1/2 cells compared to wildtype U2OS cells, 2 mM LLOMe for 30 min
Procedure: Cells Were treated with 2 mM LLOMe for 30 min, and then stained with propidium iodide (PI) (dead cells) and Hoechst-33342 (total cells). White masks, algorithm-defined cell boundaries (primary objects); red masks, computer-identified PI^+ nuclei (target objects). […] Cells Were treated with 2 mM LLOMe for 30 min. […] Cells Were treated with 2 mM in the presence or absence of 10 μg/ml cycloheximide (CHX) for 30 min, and then stained with PI (dead cells) and Hoechst-33342 (total cells). […] Scale bar, 10 μm. […] Cells Were treated with 2 mM LLOMe with or without CHX for 30 min, and then stained using Live/Dead™ stain kit (ThermoFisher). […] (i) HCM images: white masks, algorithm-defined cell boundaries; green masks, computer-identified eIF4G puncta; red masks, computer-identified PI^+ nuclei (target objects); (ii and iii) corresponding HCM quantification. […]
How does SG formation affect cell fate during lysosomal damage? […] The inventors quantified the number of SGs using the canonical SG marker polyA RNA (Ivanov et al., 2019) via high-content microscopy (HCM) (FIG. S1B) and verified the depletion of SG formation in ΔΔG3BP1/2 cells when exposed to the lysosome-specific damaging agent L-leucyl-L-leucine methyl ester (LLOMe) (Jia et al., 2022; Tan et al., 2022; Thiele et al., 1990) (FIG. 7SB). […]

[4] = test system: GABARAP; experiment: Immunoblot analysis of GABARAP lipidation in U2OS cells; settings: 2 mM LLOMe, indicated time points

## COC(=O)[C@H](CC(C)C)NC(=O)[C@@H](N)CC(C)C [LLOMe, L-leucyl-L-leucine methyl ester]
[1]
  mTOR and Raptor association with lysosomes (mass spectrometry): mTOR and Raptor dissociate from lysosomes
[2]
  ATF4 expression: increased ATF4 expression over time
[3]
  cell death by PI uptake assay: significant cell death
[4]
  GABARAP lipidation: GABARAP was lipidated
